# Earlier results in patent publication US20020132013A1, “Liquid cautery catheter” (priority 2001, published 2002).
# Columns and labels:
# [1] = system: uterocomual tubal junction
# [2] = system: hemorrhagic radiation induced proctitis; details: topical application
SMILES,"complications reported ([1]; 35 healthy, parous women)","bilateral tubal occlusion, share of study participants ([1]; 35 healthy, parous women, hysterosalpingography 4 months after the procedure)",pregnancies reported in participants who demonstrated tubal occlusion ([1]; participants with tubal occlusion),efficacy in control of bleeding [2]
C=C(C#N)C(=O)OC [Methyl 2-cyanoacrylate],No complications were reported,88.2%,no pregnancies reported,
C=O [formalin],,,,demonstrated the efficacy
